Patent US20020107248A1, “Method for treating patients with neoplasia by administering substituted sulfonyl indenyl acetic and propionic acids and esters thereof” (priority 1991, published 2002)

Test system: colonic bacteria

- conversion of the sulfonyl compound in human fecal material: converted to an unknown derivative
Compound: CC1=C(CC(=O)O)c2cc(F)ccc2C1=Cc1ccc(S(C)(=O)=O)cc1 [Example 10, α-(1-ρ-Methylsulfonylbenzylidene)-2-Methyl-5-Fluoro-3-Indenyl-Acetic Acid]
